Here are results for 7 compounds from patent US6696081B2, “Carbohydrate based lipid compositions and supramolecular structures comprising same” (Duke University, priority 2000, dated 2004).

“And” between values parts separate entries of the source, which are not always exact repeats. Equal entries are not always repeated. Where two headings read alike, the source gives them in different places.

The nature of series [1]: Modulated differential scanning calorimetry (MDSC) of hydrated lipid bilayers. In kind it is physicochemical. The settings on record: for enthalpy of transition / phase-transition temperature (Tm) of the bilayer: lipid hydrated in water, MDSC. As to the method:
The phase-transition temperatures (Tm) of the bilayers formed by DLRPC, DMRPC and DARPC were determined by modulated differential scanning calorimetry (MDSC). […] For DARPC, the similarity in Tm was not entirely unexpected since tail—tail interactions contribute more to the Tm as the tail length increases. […] At the phase-transition temperature, the bilayer transformed from the gel-liquid crystalline phase in glycerol based phospholipids such as DLPC and DMPC. This endothermic process was observed as two discreet events. A small pre-transition peak, corresponding to the conversion from a lamellar gel (Lβ) phase to rippled gel (Pβ) phase, occurred below a much larger sharp main transition peak corresponding to conversion of the Pβ phase to the liquid crystalline Lα phase. The temperature at which the pre-transition existed as well as the enthalpy of the transition both changed as a function of tail length in a linear pattern. This presence of two well-defined phase transitions was not observed for the carbohydrate-based lipids.
Thermal Analysis of DLRPC 1-2 mgs of lipid were hermetically sealed with […] water in an aluminum pan. The modulation was set to ±1.00° C. every 40 seconds and the pan was equilibrated at −15° C. The temperature was increased at 0.5° C./min to 70° C. where the temperature was held for 2 minutes. The temperature was then reduced to −10° C. and held at this temperature for 2 minutes. This heating-cooling cycle was repeated two more times before the sample was held isothermal at −10° C. for 20 minutes. Integrating under the heat flow peak curve of the main peak provides the enthalpy of the transition. TA Instruments Universal Analysis computer program (available from TA Instruments of New Castle, Del., United States of America) was used to analyze the data. DLRPC has a Tm of 15.75° C. and an enthalpy of 3.3 kcal/mol.
The same modulated differential scanning calorimetry method used on DLRPC was employed to obtain thermotropic data on DMRPC.
The same modulated differential scanning calorimetry method used on DLRPC was employed to obtain thermotropic data on DARPC.
Background: DSC measures the heat that a sample takes up or gives off during a temperature scan.

The conditions of series [2]: glycerol analog, Van Dijck et al.; cited from earlier work.
Series [3] is described as follows: MDSC thermal analysis of DLRPA as a function of pH. The series is classed as physicochemical. An excerpt:
The same modulated differential scanning calorimetry method used on DLRPC was employed to obtain thermotropic data on DLRPA. Instead of using water to hydrate the samples however, the following 5 buffers were utilized: a) 0.1 M KCl/HCl at pH 1.5, b) 0.1 M KCl/HCl at pH 4.14, c) 0.1 M Tris-HCl at pH 7.4, d) 0.01 M sodium borate at pH 8.44, and e) 0.01 M sodium borate at pH 9.5.
The effect of pH on the phase-transition temperature of DLRPA supramolecular structures was probed using modulated differential scanning calorimetry. Experiments were performed in the following 5 solutions: a) 0.1 M KCl/HCl at pH 1.5, b) 0.1 M KCl/HCl at pH 4.14, c) 0.1 M Tris-HCl at pH 7.4, d) 0.01 M sodium borate at pH 8.44, and e) 0.01 M sodium borate at pH 9.5.

The conditions of series [4]: literature value, Marsh, CRC Handbook of Lipid Bilayers; cited from earlier work.
The nature of series [5]: Carboxyfluorescein leakage assay of carbohydrosomes. The series is classed as physicochemical. The settings on record: vesicles in 20 mM PBS pH 7.4. An excerpt: The following procedure is adapted from Weinstein et al. (Weinstein, et al., Self-Quenching of Carboxyfluorescein Fluorescence: Uses in Studying Liposome Stability and Liposome-Cell Interaction; Weinstein, J. N.; et al., Ed.; CRC Press, Inc.: Boca Raton, Fla., United States of Amenica 1984; Vol. 3, pp 183-204.) and was successfully used in DMPC control experiments. Immediately before use, the carbohydrate-based lipid DMRPC, was passed through a C-18 SEP PAK™ column using a solvent system of 10% MeOH/CH3CN. Both the cholesterol and DMRPC were dissolved in chloroform and mixed. The mixtures were dried by rotoevaporation in a 100 mL round bottom flask before being thoroughly dried by high vacuum. […] The size of the liposomes was determined using dynamic light scattering. […] The filtered liposomes were diluted into osmotically equivalent 20 mM PBS buffer at pH 7.4 and the fluorescence intensity was measured over time. […]
As discussed herein above, one of the most wide-spread uses of liposomes is as drug delivery vehicles in warm-blooded vertebrates, including humans. […] In this Example, release of the self-quenching dye 5(6)-carboxyfluorescein (encapsulated in 5 mg/mL) was monitored over time by preparing carboxyfluorescein-containing carbohydrosomes using the high-pressure extrusion method. […]

For series [6] the following is noted: 40 mol % cholesterol; McMullen et al.; cited from earlier work.
In another series the test system is PLA2 (naja naja venom). The series is described as follows: pH-stat phospholipase assay. The series is classed as biochemical. As to conditions: lipid as substrate, Triton X-100 40 mM, CaCl2 10 mM, 40° C., pH 8.0, PLA2 0.1 units/mL. As to the method:
The pH-stat phospholipase assays were performed on a Metrohm 718 STAT Titrino pH-stat following a procedure described by Yuan et al. (Yuan, W.; Berman, R. J.; Gelb, M. H. J. Am. Chem. Soc. 1987, 109, 8071-8081; Deems, R. A.; Dennis, E. A. Methods Enzym 1981, 71, 703-710.) Before the assays were performed, the pH-stat was calibrated at pH 7 and pH 4. The NaOH (0.01 N) titrant was standardized by titration to pH 8.65 with a weighed amount of potassium hydrogen-phthalate in 40 mL of Dl water. The lipid was transferred to a 5 mL round bottom flask in methylene chloride/methanol (98/2) and the solvent was removed by rotoevaporation. High vacuum then removed trace amounts of remaining solvent. The lipid film was rehydrated with 2 mL of an aqueous solution containing TRITON X-100™ detergent (Sigma Chemical Company, St. Louis, Mo.) (40 mM) and CaCl2 (10 mM) and then sonicated briefly to solubilize the lipids.
Next, the solution was immersed in a temperature-controlled bath at 40° C. and stirred with a magnetic stir bar. A stream of argon was passed over the reaction mixture to prevent CO2 absorption. A microelectrode (Metrohm 6.0224.100 pH 1-11/0-60° C. Idrolyte) was inserted through the top of the reaction vessel along with the dosing tube from the pH-stat. The reaction mixture was adjusted to a pH of 8.2 by addition of NaOH. Next, 0.2 units of PLA2 (naja naja venom, Sigma Chemical Company, St. Louis, Mo.) (0.1 units/mL) was added to the reaction and the reaction started. The pH was allowed to drop to 8.0 and held at this value by addition of NaOH. At pH 8, the fatty acids were almost completely ionized; therefore, the amount of base added as a function of time indicates cleavage of the ester bond.
In this Example, enzymatic activity was recorded using a pH-stat, which maintains a specific pH by adding base during the enzymatic reaction. During these assays, DMPC was hydrolyzed with an initial average rate of 6.19 E-08 (moles NaOH/minute) (std dev 6.72E-10).
Next, whether DMRPC inhibits PLA2 activity was investigated. Using DMPC (5 mM) as a substrate, DMRPC was added to the reaction mixture at varying concentrations. […] With a change in structure, different carbohydrate-based phospholipids could inhibit PLA2.

Take “methyl-2,3-di-O-arachadonyl-b-D-ribo-5-phosphocholine [DARPC]”: in series [1], the enthalpy of transition was 5.1 ± 1.5 kcal/mol and 5.1 kcal/mol; the “phase-transition temperature (Tm) of the bilayer” value (“phase-transition temperature (Tm)” below) was 63.5±0.6 °C and 63.5 °C.
As to `CCCCCCCCCCCC(=O)OC[C@H](COP(=O)(O)O)OC(=O)CCCCCCCCCCC` [DLPA, dilauroyl phosphatidic acid], in series [2], the “pH at which the first proton of the phosphate is lost” value was 3-4 and the “pH at which the second proton of the phosphate is lost” value was about 7.
On to “bis-(2,3-lauroyl)-1-methoxy-5-ribo-phosphatidic acid [DLRPA]”, for which the “pH at which the first proton of the phosphate is lost” value in series [3] (from Tm versus pH profile) is on record as 3-4. In addition, the “pH at which the second proton of the phosphate is lost” value in series [3] (from Tm versus pH profile) is about 8.5. Further, the Tm is about 45 °C in series [3] (pH 1.5, 0.1 M KCl/HCl); 34 °C in series [3] (pH 4.14, 0.1 M KCl/HCl); 31 °C in series [3] (pH 7.4, 0.1 M Tris-HCl); 29 °C in series [3] (pH 8.4, 0.01 M sodium borate); about 18 °C in series [3] (pH 9.5, 0.01 M sodium borate).
Turning to `CCCCCCCCCCCCCCCCCCCC(=O)OC[C@H](COP(=O)([O-])OCC[N+](C)(C)C)OC(=O)CCCCCCCCCCCCCCCCCCC` [DAPC, reference compound], in series [1], the enthalpy of transition came out at 12.6 ± 0.7 kcal/mol and the “phase-transition temperature (Tm)” value is 66 °C. In series [4], the “enthalpy of transition (literature)” value is on record as 11.93 kcal/mol.
As to `CCCCCCCCCCCC(=O)OC[C@H](COP(=O)([O-])OCC[N+](C)(C)C)OC(=O)CCCCCCCCCCC` [DLPC, 1,2-dilauroyl-sn-glycero-3-phosphocholine, reference compound], in series [1], the enthalpy of transition was 1.5 kcal/mol and the “phase-transition temperature (Tm)” value was −1.1±0.8 °C.
In the case of `CCCCCCCCCCCCCC(=O)OC[C@H](COP(=O)([O-])OCC[N+](C)(C)C)OC(=O)CCCCCCCCCCCCC` [DMPC, reference compound], the “release of carboxyfluorescein in the first 20 minutes” value in series [5] was “release dye over the first 20 minutes”. The “increase in phase-transition temperature” value in series [6] is at most 17 °C. In series [1], the enthalpy of transition came to 5.6 ± 1.1 kcal/mol and the “phase-transition temperature (Tm)” value came out at 23.5 °C. In the series with PLA2 (naja naja venom), the “initial average rate of hydrolysis by PLA2” value is 6.19 E-08 moles NaOH/minute and 6.19 E-08 (std. dev. 6.72E-10) moles NaOH/minute. Moreover, the “enthalpy of transition (literature)” value in series [4] is 5.9 ± 0.6 kcal/mol.
As to `CCCCCCCCCCCC(=O)O[C@H]1[C@H](OC)O[C@H](COP(=O)([O-])OCC[N+](C)(C)C)[C@H]1OC(=O)CCCCCCCCCCC` [DLRPC, Methyl-2,3-di-O-lauroyl-b-D-ribo-5-phosphocholine], in series [1] (DLRPC vs DLPC, DMRPC vs DMPC), the “increase of Tm over the glycerol analog” value was 16 °C. Further, in series [1], the enthalpy of transition is 3.3 ± 0.3 kcal/mol and 3.3 kcal/mol; the “phase-transition temperature (Tm)” value is 15.75±0.05 °C and 15.75 °C.
